Assay results: ChEMBL document CHEMBL4507262, “Data for DCP probe A-1596586” (2021)
The source made the active and inactive calls. No cut-off for these calls is given here.

What was measured:
[1] = tested on: Phosphatidylinositol 4,5-bisphosphate 3-kinase catalytic subunit alpha isoform (Homo sapiens), P42336 [H1047L]; conditions: Compound concentration 1000.0 nM
[2] = molecular target: cGMP-dependent protein kinase 2 (Homo sapiens) (UniProt Q13237); conditions: Compound concentration 1000.0 nM
[3] = molecular target: Mitogen-activated protein kinase kinase kinase 2 (Homo sapiens) (UniProt Q9Y2U5); conditions: Compound concentration 1000.0 nM
[4] = molecular target: Myosin light chain kinase, smooth muscle (Homo sapiens) (UniProt Q15746); conditions: Compound concentration 1000.0 nM
[5] = molecular target: Serine/threonine-protein kinase pim-1 (Homo sapiens) (UniProt P11309); conditions: Compound concentration 1000.0 nM
[6] = molecular target: BDNF/NT-3 growth factors receptor (Homo sapiens) (UniProt Q16620); conditions: Compound concentration 1000.0 nM
[7] = molecular target: Epidermal growth factor receptor (Homo sapiens) (UniProt P00533); conditions: Compound concentration 1000.0 nM
[8] = molecular target: GABA-A receptor; anion channel (Rattus norvegicus) (UniProt O09028+P15431+P18506+P18508+P19969+P20236+P23574+P23576+P28471+P28473+P30191+P62813+P63079+P63138+Q91ZM7+Q9ES14); conditions: Compound concentration 10.0 uM
[9] = molecular target: Cyclin-dependent kinase 9 (Homo sapiens) (UniProt P50750); conditions: Compound concentration 1000.0 nM
[10] = molecular target: Tyrosine-protein kinase JAK2 (Homo sapiens) (UniProt O60674); conditions: Compound concentration 1000.0 nM
[11] = molecular target: Glucocorticoid receptor (Homo sapiens) (UniProt P04150); assay: GR (h) Eurofins-Cerep binding assay; parameters: ligand concentration 1.5 nM; conditions: filed as agonist, Compound concentration 10.0 uM
[12] = tested on: Receptor-type tyrosine-protein kinase FLT3 (Homo sapiens), P36888 [D835H]; conditions: Compound concentration 1000.0 nM
[13] = molecular target: Dual specificity mitogen-activated protein kinase kinase 7 (Homo sapiens) (UniProt O14733); conditions: Compound concentration 1000.0 nM
[14] = molecular target: Cystic fibrosis transmembrane conductance regulator (Homo sapiens, UniProt P13569); assay: CSE-HRP surface expression (Cell surface expression-horseradish peroxidase) assay
[15] = molecular target: Eukaryotic translation initiation factor 2-alpha kinase 1 (Homo sapiens) (UniProt Q9BQI3); conditions: Compound concentration 1000.0 nM
[16] = molecular target: Cyclin-dependent kinase 15 (Homo sapiens) (UniProt Q96Q40); conditions: Compound concentration 1000.0 nM
[17] = molecular target: Cyclin-G-associated kinase (Homo sapiens) (UniProt O14976); conditions: Compound concentration 1000.0 nM
[18] = molecular target: Ribosomal protein S6 kinase alpha-5 (Homo sapiens) (UniProt O75582); conditions: Compound concentration 1000.0 nM
[19] = molecular target: Cyclin-dependent kinase 7 (Homo sapiens) (UniProt P50613); conditions: Compound concentration 1000.0 nM
[20] = molecular target: Receptor-interacting serine/threonine-protein kinase 4 (Homo sapiens) (UniProt P57078); conditions: Compound concentration 1000.0 nM
[21] = molecular target: Endothelin receptor type B (Homo sapiens) (UniProt P24530); assay: ETB (h) Eurofins-Cerep binding assay; parameters: ligand concentration 0.03 nM; conditions: filed as agonist, Compound concentration 10.0 uM
[22] = molecular target: Casein kinase I isoform alpha-like (Homo sapiens) (UniProt Q8N752); conditions: Compound concentration 1000.0 nM
[23] = molecular target: Serine/threonine-protein kinase TAO1 (Homo sapiens) (UniProt Q7L7X3); conditions: Compound concentration 1000.0 nM
[24] = molecular target: Proto-oncogene tyrosine-protein kinase ROS (Homo sapiens) (UniProt P08922); conditions: Compound concentration 1000.0 nM
[25] = molecular target: Cyclin-dependent kinase 4 (Homo sapiens) (UniProt P11802); conditions: Compound concentration 1000.0 nM
[26] = molecular target: Endothelin-1 receptor (Homo sapiens) (UniProt P25101); assay: ETA (h) Eurofins-Cerep binding assay; parameters: ligand concentration 0.03 nM; conditions: filed as agonist, Compound concentration 10.0 uM
[27] = molecular target: Adenosine receptor A1 (Homo sapiens) (UniProt P30542); assay: A1 (h) Eurofins-Cerep binding assay; parameters: ligand concentration 1 nM; conditions: filed as antagonist, Compound concentration 10.0 uM
[28] = molecular target: Rhodopsin kinase GRK1 (Homo sapiens) (UniProt Q15835); conditions: Compound concentration 1000.0 nM
[29] = molecular target: cAMP-dependent protein kinase catalytic subunit beta (Homo sapiens) (UniProt P22694); conditions: Compound concentration 1000.0 nM
[30] = molecular target: Cyclin-dependent kinase-like 1 (Homo sapiens) (UniProt Q00532); conditions: Compound concentration 1000.0 nM
[31] = molecular target: Receptor-type tyrosine-protein kinase FLT3 (Homo sapiens) (UniProt P36888); conditions: Compound concentration 1000.0 nM
[32] = molecular target: Angiotensin-converting enzyme (Homo sapiens) (UniProt P12821); assay: ACE (h) Eurofins-Cerep enzyme and uptake assay; conditions: Compound concentration 10.0 uM
[33] = molecular target: Inhibitor of nuclear factor kappa-B kinase subunit alpha (Homo sapiens) (UniProt O15111); conditions: Compound concentration 1000.0 nM
[34] = molecular target: Tyrosine-protein kinase JAK1 (Homo sapiens) (UniProt P23458); conditions: Compound concentration 1000.0 nM
[35] = molecular target: Protein kinase C eta type (Homo sapiens) (UniProt P24723); conditions: Compound concentration 1000.0 nM
[36] = molecular target: Serine/threonine-protein kinase MRCK beta (Homo sapiens) (UniProt Q9Y5S2); conditions: Compound concentration 1000.0 nM
[37] = molecular target: Discoidin domain-containing receptor 2 (Homo sapiens) (UniProt Q16832); conditions: Compound concentration 1000.0 nM
[38] = tested on: Serine/threonine-protein kinase B-raf (Homo sapiens), P15056 [V600E]; conditions: Compound concentration 1000.0 nM
[39] = molecular target: Platelet-derived growth factor receptor alpha (Homo sapiens) (UniProt P16234); conditions: Compound concentration 1000.0 nM
[40] = tested on: Phosphatidylinositol 4,5-bisphosphate 3-kinase catalytic subunit alpha isoform (Homo sapiens), P42336 [H1047Y]; conditions: Compound concentration 1000.0 nM
[41] = molecular target: Leucine-rich repeat serine/threonine-protein kinase 2 (Homo sapiens) (UniProt Q5S007); conditions: Compound concentration 1000.0 nM
[42] = tested on: Phosphatidylinositol 4,5-bisphosphate 3-kinase catalytic subunit alpha isoform (Homo sapiens), P42336 [E545A]; conditions: Compound concentration 1000.0 nM
[43] = molecular target: Alpha-1A adrenergic receptor (Homo sapiens) (UniProt P35348); assay: Alpha1A (h) Eurofins-Cerep binding assay; parameters: ligand concentration 0.1 nM; conditions: filed as antagonist, Compound concentration 10.0 uM
[44] = molecular target: Serine/threonine-protein kinase WNK1 (Homo sapiens) (UniProt Q9H4A3); conditions: Compound concentration 1000.0 nM

Chain of Phosphatidylinositol 4,5-bisphosphate 3-kinase catalytic subunit alpha isoform (Homo sapiens), P42336 [H1047L] (P42336 whole entry H1047L, canonical isoform): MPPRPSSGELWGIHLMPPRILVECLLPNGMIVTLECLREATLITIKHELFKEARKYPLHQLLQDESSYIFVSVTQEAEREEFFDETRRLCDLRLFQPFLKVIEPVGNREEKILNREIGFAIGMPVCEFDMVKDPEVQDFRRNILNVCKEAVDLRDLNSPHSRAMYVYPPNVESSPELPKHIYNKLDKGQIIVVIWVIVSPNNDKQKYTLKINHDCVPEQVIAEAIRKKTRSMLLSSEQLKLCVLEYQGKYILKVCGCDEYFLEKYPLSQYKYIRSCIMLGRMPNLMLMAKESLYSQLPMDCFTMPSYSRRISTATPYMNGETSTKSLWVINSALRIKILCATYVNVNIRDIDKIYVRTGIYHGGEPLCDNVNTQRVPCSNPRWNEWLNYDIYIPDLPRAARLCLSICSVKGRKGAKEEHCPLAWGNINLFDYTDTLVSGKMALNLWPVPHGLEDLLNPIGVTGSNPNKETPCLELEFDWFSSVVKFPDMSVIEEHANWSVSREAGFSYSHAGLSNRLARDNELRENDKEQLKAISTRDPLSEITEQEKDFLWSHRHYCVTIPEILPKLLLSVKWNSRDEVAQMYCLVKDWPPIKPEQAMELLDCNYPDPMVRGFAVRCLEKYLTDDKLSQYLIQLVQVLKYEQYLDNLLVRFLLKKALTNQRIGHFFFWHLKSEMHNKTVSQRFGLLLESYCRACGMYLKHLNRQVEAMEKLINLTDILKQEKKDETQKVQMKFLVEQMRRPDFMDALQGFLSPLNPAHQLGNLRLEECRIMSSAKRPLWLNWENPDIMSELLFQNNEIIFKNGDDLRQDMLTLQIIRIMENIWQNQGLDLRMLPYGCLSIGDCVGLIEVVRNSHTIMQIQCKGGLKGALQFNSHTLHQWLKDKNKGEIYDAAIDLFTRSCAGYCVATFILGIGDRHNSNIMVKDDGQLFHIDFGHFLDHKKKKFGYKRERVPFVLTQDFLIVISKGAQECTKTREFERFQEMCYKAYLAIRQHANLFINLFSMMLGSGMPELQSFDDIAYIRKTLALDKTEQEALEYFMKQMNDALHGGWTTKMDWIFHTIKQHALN
Chain of Tyrosine-protein kinase JAK1 (Homo sapiens) (P23458 whole entry): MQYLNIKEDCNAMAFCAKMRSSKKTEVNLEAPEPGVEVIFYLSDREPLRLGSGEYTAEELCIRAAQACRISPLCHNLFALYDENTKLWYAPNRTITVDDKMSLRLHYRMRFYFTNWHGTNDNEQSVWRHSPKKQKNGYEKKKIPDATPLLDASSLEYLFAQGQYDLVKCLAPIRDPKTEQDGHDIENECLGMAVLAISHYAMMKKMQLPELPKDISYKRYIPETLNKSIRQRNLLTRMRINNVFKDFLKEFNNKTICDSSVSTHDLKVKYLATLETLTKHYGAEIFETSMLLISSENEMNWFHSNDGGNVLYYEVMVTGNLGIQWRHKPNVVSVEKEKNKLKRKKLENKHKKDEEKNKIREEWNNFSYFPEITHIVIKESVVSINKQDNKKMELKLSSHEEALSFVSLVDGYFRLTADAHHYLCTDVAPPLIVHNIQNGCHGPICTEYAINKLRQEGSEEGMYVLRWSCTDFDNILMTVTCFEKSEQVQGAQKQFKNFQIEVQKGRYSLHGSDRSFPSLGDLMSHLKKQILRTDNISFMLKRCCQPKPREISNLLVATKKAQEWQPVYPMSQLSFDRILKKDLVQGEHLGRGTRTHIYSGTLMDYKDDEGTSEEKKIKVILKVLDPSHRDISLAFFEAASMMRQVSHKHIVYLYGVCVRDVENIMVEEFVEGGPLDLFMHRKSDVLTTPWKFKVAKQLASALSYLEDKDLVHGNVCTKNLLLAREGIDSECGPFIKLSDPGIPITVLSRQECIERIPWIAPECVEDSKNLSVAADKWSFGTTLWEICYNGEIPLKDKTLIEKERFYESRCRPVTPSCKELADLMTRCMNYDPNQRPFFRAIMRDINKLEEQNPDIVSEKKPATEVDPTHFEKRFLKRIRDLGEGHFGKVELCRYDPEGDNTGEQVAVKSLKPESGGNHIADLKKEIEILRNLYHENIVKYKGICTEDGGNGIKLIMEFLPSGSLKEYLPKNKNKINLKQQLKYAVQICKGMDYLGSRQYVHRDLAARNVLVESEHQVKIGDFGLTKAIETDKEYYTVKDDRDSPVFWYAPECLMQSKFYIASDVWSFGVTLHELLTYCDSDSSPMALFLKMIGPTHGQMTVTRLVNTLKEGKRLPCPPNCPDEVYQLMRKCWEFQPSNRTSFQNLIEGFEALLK
Chain of Serine/threonine-protein kinase B-raf (Homo sapiens), P15056 [V600E] (P15056 whole entry V600E): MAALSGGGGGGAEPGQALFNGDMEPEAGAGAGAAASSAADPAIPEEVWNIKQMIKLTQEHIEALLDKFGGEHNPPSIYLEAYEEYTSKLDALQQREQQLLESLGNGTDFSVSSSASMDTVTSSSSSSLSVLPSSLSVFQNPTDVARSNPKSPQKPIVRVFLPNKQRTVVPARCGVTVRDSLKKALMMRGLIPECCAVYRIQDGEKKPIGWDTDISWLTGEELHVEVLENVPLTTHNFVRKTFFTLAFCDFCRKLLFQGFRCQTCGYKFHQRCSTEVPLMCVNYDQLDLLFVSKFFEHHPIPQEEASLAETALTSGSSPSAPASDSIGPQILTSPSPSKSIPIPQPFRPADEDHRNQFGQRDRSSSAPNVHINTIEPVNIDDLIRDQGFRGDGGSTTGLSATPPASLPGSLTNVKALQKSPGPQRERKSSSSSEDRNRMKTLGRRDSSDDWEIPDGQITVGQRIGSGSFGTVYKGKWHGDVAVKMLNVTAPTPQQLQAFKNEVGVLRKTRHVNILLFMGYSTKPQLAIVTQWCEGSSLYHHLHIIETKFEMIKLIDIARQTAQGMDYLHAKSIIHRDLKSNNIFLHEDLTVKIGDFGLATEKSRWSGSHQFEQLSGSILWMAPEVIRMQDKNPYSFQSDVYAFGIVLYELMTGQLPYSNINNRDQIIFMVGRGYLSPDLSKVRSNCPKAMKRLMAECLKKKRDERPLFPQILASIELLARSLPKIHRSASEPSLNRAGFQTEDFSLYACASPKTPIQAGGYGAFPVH
Chain of Cyclin-G-associated kinase (Homo sapiens) (O14976 whole entry): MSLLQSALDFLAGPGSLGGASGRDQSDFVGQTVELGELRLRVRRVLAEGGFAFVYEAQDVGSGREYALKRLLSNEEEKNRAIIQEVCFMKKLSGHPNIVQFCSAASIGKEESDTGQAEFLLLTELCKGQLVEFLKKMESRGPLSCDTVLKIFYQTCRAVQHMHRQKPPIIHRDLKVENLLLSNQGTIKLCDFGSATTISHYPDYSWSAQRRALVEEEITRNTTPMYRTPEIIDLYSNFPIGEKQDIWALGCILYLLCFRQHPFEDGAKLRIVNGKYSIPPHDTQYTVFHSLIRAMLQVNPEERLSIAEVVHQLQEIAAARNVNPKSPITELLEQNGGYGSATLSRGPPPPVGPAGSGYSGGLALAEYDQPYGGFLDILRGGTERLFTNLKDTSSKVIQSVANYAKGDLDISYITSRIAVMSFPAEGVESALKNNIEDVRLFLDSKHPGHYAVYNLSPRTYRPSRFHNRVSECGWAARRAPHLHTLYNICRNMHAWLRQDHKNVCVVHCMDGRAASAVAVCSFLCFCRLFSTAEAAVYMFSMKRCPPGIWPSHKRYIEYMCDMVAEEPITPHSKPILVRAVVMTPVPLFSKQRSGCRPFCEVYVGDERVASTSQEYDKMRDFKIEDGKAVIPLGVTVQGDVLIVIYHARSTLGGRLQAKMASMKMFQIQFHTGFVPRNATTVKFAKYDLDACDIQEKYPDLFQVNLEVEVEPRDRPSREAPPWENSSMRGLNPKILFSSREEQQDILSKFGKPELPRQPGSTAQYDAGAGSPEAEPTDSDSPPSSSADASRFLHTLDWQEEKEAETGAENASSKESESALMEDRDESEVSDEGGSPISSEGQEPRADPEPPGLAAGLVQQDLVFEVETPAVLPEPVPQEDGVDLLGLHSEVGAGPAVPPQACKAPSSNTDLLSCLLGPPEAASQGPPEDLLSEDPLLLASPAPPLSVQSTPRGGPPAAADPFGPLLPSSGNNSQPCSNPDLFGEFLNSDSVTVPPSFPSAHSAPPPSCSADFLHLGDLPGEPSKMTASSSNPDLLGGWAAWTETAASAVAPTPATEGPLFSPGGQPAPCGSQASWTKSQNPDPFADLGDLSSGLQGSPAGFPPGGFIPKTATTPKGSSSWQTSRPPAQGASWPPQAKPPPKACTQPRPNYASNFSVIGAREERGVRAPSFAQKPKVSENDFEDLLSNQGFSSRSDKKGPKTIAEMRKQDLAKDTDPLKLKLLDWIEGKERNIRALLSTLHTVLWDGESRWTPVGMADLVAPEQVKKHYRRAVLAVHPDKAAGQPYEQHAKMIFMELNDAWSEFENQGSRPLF
Chain of Ribosomal protein S6 kinase alpha-5 (Homo sapiens) (O75582 whole entry, looked up): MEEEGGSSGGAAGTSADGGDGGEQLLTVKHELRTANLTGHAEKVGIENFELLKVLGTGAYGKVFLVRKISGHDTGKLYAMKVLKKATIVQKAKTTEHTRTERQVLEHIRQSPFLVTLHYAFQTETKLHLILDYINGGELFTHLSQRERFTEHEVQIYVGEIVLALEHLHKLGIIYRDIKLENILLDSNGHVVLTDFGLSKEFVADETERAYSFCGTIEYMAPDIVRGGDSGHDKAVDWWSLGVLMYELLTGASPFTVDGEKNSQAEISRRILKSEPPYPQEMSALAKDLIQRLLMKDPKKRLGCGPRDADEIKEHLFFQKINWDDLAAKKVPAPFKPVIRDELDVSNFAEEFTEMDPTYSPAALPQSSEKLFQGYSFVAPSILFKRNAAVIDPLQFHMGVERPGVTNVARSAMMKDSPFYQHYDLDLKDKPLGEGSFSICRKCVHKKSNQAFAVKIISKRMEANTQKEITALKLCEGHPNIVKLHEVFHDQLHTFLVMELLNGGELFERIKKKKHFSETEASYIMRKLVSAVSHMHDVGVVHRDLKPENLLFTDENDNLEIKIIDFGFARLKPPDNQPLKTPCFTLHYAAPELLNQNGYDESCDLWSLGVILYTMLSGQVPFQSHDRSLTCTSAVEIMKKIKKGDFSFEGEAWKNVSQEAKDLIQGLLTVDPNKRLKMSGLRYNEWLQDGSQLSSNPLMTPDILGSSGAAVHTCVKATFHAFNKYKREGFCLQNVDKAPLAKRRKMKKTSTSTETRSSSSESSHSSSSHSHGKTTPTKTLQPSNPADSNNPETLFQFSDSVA

## COc1ccc2c(c1)O[C@@H](c1ccc(OC)c(OC)c1)C[C@H]2NC(=O)C1(c2ccc3c(c2)OC(F)(F)O3)CC1 [A-1596586]
[1]
  residual activity: 77%
[2]
  residual activity: 96%
[3]
  residual activity: 86%
[4]
  residual activity: 85%
[5]
  residual activity: 91%
[6]
  residual activity: 91%
[7]
  residual activity: 96%
[8]
  inhibition: 11.1%
[9]
  residual activity: 89%
[10]
  residual activity: 75%
[11]
  % Inhibition of Control Specific Binding (Mean n=2): 22.1%
[12]
  residual activity: 100%
[13]
  residual activity: 88%
[14]
  EC50: 130 nM (active)
[15]
  residual activity: 98%
[16]
  residual activity: 100%
[17]
  residual activity: 100%
[18]
  residual activity: 100%
[19]
  residual activity: 80%
[20]
  residual activity: 67%
[21]
  % Inhibition of Control Specific Binding (Mean n=2): -9.1%
[22]
  residual activity: 100%
[23]
  residual activity: 93%
[24]
  residual activity: 97%
[25]
  residual activity: 100%
[26]
  % Inhibition of Control Specific Binding (Mean n=2): -6.9%
[27]
  % Inhibition of Control Specific Binding (Mean n=2): 14.3%
[28]
  residual activity: 95%
[29]
  residual activity: 95%
[30]
  residual activity: 82%
[31]
  residual activity: 100%
[32]
  % Inhibition of Control Values (Mean n=2): -94%
[33]
  residual activity: 95%
[34]
  residual activity: 100%
[35]
  residual activity: 96%
[36]
  residual activity: 100%
[37]
  residual activity: 98%
[38]
  residual activity: 100%
[39]
  residual activity: 78%
[40]
  residual activity: 77%
[41]
  residual activity: 87%
[42]
  residual activity: 94%
[43]
  % Inhibition of Control Specific Binding (Mean n=2): 5.7%
[44]
  residual activity: 100%

## COc1ccc2c(c1)O[C@H](c1ccc(OC)c(OC)c1)C[C@@H]2NC(=O)C1(c2ccc3c(c2)OC(F)(F)O3)CC1 [A-1596584]
[1]
  residual activity: 100%
[2]
  residual activity: 89%
[3]
  residual activity: 91%
[4]
  residual activity: 100%
[5]
  residual activity: 100%
[6]
  residual activity: 100%
[7]
  residual activity: 92%
[8]
  inhibition: -8.42%
[9]
  residual activity: 78%
[10]
  residual activity: 98%
[11]
  % Inhibition of Control Specific Binding (Mean n=2): 13.7%
[12]
  residual activity: 100%
[13]
  residual activity: 100%
[14]
  EC50: 1000 nM (not active)
[15]
  residual activity: 100%
[16]
  residual activity: 100%
[17]
  residual activity: 100%
[18]
  residual activity: 91%
[19]
  residual activity: 85%
[20]
  residual activity: 75%
[21]
  % Inhibition of Control Specific Binding (Mean n=2): -9%
[22]
  residual activity: 100%
[23]
  residual activity: 100%
[24]
  residual activity: 73%
[25]
  residual activity: 100%
[26]
  % Inhibition of Control Specific Binding (Mean n=2): 4%
[27]
  % Inhibition of Control Specific Binding (Mean n=2): 11.5%
[28]
  residual activity: 97%
[29]
  residual activity: 99%
[30]
  residual activity: 83%
[31]
  residual activity: 100%
[32]
  % Inhibition of Control Values (Mean n=2): -28.5%
[33]
  residual activity: 89%
[34]
  residual activity: 100%
[35]
  residual activity: 100%
[36]
  residual activity: 100%
[37]
  residual activity: 94%
[38]
  residual activity: 93%
[39]
  residual activity: 87%
[40]
  residual activity: 100%
[41]
  residual activity: 100%
[42]
  residual activity: 100%
[43]
  % Inhibition of Control Specific Binding (Mean n=2): 27.3%
[44]
  residual activity: 100%
